According to patent US7998965B2, “Glutamate aggrecanase inhibitors” (Wyeth LLC, priority 2005, dated 2011):
pIC50: −log10 of the molar value. Read-outs that look alike come from different tables or passages of the source.

Biological target: T1, purified recombinant human Aggrecanase-1 (rAgg1) (Homo sapiens, UniProt O75173)
T1 sequence (O75173 213-837): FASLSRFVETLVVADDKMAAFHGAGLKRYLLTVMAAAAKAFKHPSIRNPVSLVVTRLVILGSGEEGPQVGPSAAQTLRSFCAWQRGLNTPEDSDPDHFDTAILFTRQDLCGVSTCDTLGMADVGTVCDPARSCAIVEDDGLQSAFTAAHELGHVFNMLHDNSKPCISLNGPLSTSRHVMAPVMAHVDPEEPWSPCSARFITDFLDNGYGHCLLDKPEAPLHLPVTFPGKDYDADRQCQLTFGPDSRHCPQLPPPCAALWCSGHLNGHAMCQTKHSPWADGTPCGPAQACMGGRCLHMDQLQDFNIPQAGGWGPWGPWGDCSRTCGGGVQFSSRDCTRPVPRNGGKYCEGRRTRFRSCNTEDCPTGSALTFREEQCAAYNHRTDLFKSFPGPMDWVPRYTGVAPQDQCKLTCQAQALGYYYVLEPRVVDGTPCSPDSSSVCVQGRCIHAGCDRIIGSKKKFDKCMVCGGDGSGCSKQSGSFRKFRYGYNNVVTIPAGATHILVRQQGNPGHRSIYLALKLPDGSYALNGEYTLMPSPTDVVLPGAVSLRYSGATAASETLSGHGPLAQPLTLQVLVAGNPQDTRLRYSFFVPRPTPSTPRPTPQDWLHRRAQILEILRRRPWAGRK
Assay: In vitro fluorescence screen for Aggrecanase-1 inhibitors
Format: biochemical
Conditions: for pIC50: read-out: Agg1 IC50

pIC50 (Table 1) | Structure (SMILES) | other results
6.52 | O=C(O)CC[C@H](NC(=O)c1ccc(-c2ccccc2)cc1)C(=O)NCc1cccc(F)c1 [Example 8XX, N^2-(1,1′-biphenyl-4-ylcarbonyl)-N^1-(3-fluorobenzyl)-L-α-glutamine] | –
6.68 | O=C(O)CC[C@H](NC(=O)c1ccc(-c2ccccc2)cc1)C(=O)NCc1ccccc1F [Example 8ZZ, N^2-(1,1′-biphenyl-4-ylcarbonyl)-N^1-(2-fluorobenzyl)-L-α-glutamine] | –
6.70 | O=Cc1ccc(-c2ccc(CCNC(=O)[C@H](CCC(=O)O)NC(=O)c3ccc(-c4ccccc4)cc3)cc2)cc1 [Example 9, N^2-(biphenyl-4-ylcarbonyl)-N^1-[2-(4′-formylbiphenyl-4-yl)ethyl]-L-α-glutamine] | –
6.82 | COc1ccc(-c2ccc(CCNC(=O)[C@H](CCC(=O)O)NC(=O)c3ccc(-c4ccccc4)cc3)cc2)cc1 [Example 10B, N^2-(biphenyl-4-ylcarbonyl)-N^1-[2-(4′-methoxybiphenyl-4-yl)ethyl]-L-α-glutamine] | –
6.43 | CCOc1ccccc1-c1ccc(CCNC(=O)[C@H](CCC(=O)O)NC(=O)c2ccc(-c3ccccc3)cc2)cc1 [Example 10E, N^2-(biphenyl-4-ylcarbonyl)-N^1-[2-(2′-ethoxybiphenyl-4-yl)ethyl]-L-α-glutamine] | –
6.52 | O=C(O)CC[C@H](NC(=O)c1ccc(-c2ccccc2)cc1)C(=O)NCCc1ccc(-c2ccncc2)cc1 [Example 10H, N^2-(biphenyl-4-ylcarbonyl)-N^1-[2-(4-pyridin-4-ylphenyl)ethyl]-L-α-glutamine] | –
6.49 | O=C(O)CC[C@H](NC(=O)c1ccc(-c2ccccc2)cc1)C(=O)NCCc1cccc(-c2ccccn2)c1 [Example 10I, N^2-(biphenyl-4-ylcarbonyl)-N^1-[2-(3-pyridin-2-ylphenyl)ethyl]-L-α-glutamine] | –
6.59 | O=Cc1ccc(-c2cccc(CCNC(=O)[C@H](CCC(=O)O)NC(=O)c3ccc(-c4ccccc4)cc3)c2)cc1 [Example 10J, N^2-(biphenyl-4-ylcarbonyl)-N^1-[2-(4′-formylbiphenyl-3-yl)ethyl]-L-α-glutamine] | –
6.33 | O=C(O)CC[C@H](NC(=O)c1ccc(-c2ccccc2)cc1)C(=O)NCc1cccc(-c2ccc(C(F)(F)F)cc2)c1 [Example 10O, N^2-(biphenyl-4-ylcarbonyl)-N^1-{[4′-(trifluoromethyl)biphenyl-3-yl]methyl}-L-α-glutamine] | –
6.15 | C#Cc1ccc(-c2cccc(CNC(=O)[C@H](CCC(=O)O)NC(=O)c3ccc(-c4ccccc4)cc3)c2)cc1 [Example 10P, N^2-(biphenyl-4-ylcarbonyl)-N^1-[(4′-ethynylbiphenyl-3-yl)methyl]-L-α-glutamine] | –
4.46 | C#Cc1ccc(-c2ccc(C(=O)N[C@@H](CCC(=O)O)C(=O)NCc3ccccc3)cc2)cc1 [Example 12B, N^1-benzyl-N^2-[(4′-ethynyl-1,1′-biphenyl-4-yl)carbonyl]-L-α-glutamine] | –
4.60 | O=C(O)CC[C@H](NC(=O)c1ccc(-c2cccnc2)cc1)C(=O)NCc1ccccc1 [Example 12C, N^1-benzyl-N^2-(4-pyridin-3-ylbenzoyl)-L-α-glutamine] | –
< 4.00 | O=C(O)CC[C@H](NC(=O)c1ccc(-c2nccs2)cc1)C(=O)NCc1ccccc1 [Example 12D, N^1-benzyl-N^2-[4-(1,3-thiazol-2-yl)benzoyl]-L-α-glutamine] | –
5.74 | O=C(O)CC[C@H](NC(=O)c1ccc(-c2ccccn2)cc1)C(=O)NCc1ccccc1 [Example 12E, N^1-benzyl-N^2-(4-pyridin-2-ylbenzoyl)-L-α-glutamine] | –
~4.30 | Cc1ccc(C)c(-c2ccc(C(=O)N[C@@H](CCC(=O)O)C(=O)NCc3ccccc3)cc2)c1 [Example 13B, N^1-benzyl-N^2-[(2′,5′-dimethyl-1,1′-biphenyl-4-yl)carbonyl]-L-α-glutamine] | –
5.02 | CCc1ccc(-c2ccc(C(=O)N[C@@H](CCC(=O)O)C(=O)NCc3ccccc3)cc2)cc1 [Example 13C, N^1-benzyl-N^2-[(4′-ethyl-1,1′-biphenyl-4-yl)carbonyl]-L-α-glutamine] | –
~4.60 | CCOc1ccccc1-c1ccc(C(=O)N[C@@H](CCC(=O)O)C(=O)NCc2ccccc2)cc1 [Example 13E, N^1-benzyl-N^2-[(2′-ethoxy-1,1′-biphenyl-4-yl)carbonyl]-L-α-glutamine] | –
~6.70 | Cc1cccc(C)c1-c1ccc(C(=O)N[C@@H](CCC(=O)O)C(=O)NCc2ccccc2)cc1 [Example 13F, N^1-benzyl-N^2-[(2′,6′-dimethyl-1,1′-biphenyl-4-yl)carbonyl]-L-α-glutamine] | –

pIC50 (Table 1) | Structure (SMILES) | other results
~5.60 | C=Cc1ccc(-c2ccc(C(=O)N[C@@H](CCC(=O)O)C(=O)NCc3ccccc3)cc2)cc1 [Example 13G, N^1-benzyl-N^2-[(4′-vinyl-1,1′-biphenyl-4-yl)carbonyl]-L-α-glutamine] | –
– | CCOc1ccc(-c2ccc(C(=O)N[C@@H](CCC(=O)O)C(=O)NCc3ccccc3)cc2)cc1 [Example 14, N^1-benzyl-N^2-[(4′-ethoxy-1,1′-biphenyl-4-yl)carbonyl]-L-α-glutamine] | Agg1 % @ concentration (Table 1, @ 16,700 (nM)): 60% @
< 4.66 | CCCOc1ccc(-c2ccc(C(=O)N[C@@H](CCC(=O)O)C(=O)NCc3ccccc3)cc2)cc1 [Example 15A, N^1-benzyl-N^2-[(4′-propoxy-1,1′-biphenyl-4-yl)carbonyl]-L-α-glutamine] | –
– | CCCCOc1ccc(-c2ccc(C(=O)N[C@@H](CCC(=O)O)C(=O)NCc3ccccc3)cc2)cc1 [Example 15B, N^1-benzyl-N^2-[(4′-butoxy-1,1′-biphenyl-4-yl)carbonyl]-L-α-glutamine] | Agg1 % @ concentration (Table 1, @ 7,500 (nM)): 67% @
– | O=C(O)CC[C@H](NC(=O)c1ccc(-c2ccc(OCC3CCC3)cc2)cc1)C(=O)NCc1ccccc1 [Example 15C, N^1-benzyl-N^2-{[4′-(cyclobutylmethoxy)-1,1′-biphenyl-4-yl]carbonyl}-L-α-glutamine] | Agg1 % @ concentration (Table 1, @ 7,500 (nM)): 50% @
– | O=C(O)CC[C@H](NC(=O)c1ccc(-c2ccc(OCC3CCCCC3)cc2)cc1)C(=O)NCc1ccccc1 [Example 15D, N^1-benzyl-N^2-{[4′-(cyclohexylmethoxy)-1,1′-biphenyl-4-yl]carbonyl}-L-α-glutamine] | Agg1 % @ concentration (Table 1, @ 7,500 (nM)): 86% @
6.22 | COc1cccc(COc2ccc(-c3ccc(C(=O)N[C@@H](CCC(=O)O)C(=O)NCc4ccccc4)cc3)cc2)c1 [Example 15F, N^1-benzyl-N^2-({4′-[(3-methoxybenzyl)oxy]-1,1′-biphenyl-4-yl}carbonyl)-L-α-glutamine] | –
5.66 | COc1cc(COc2ccc(-c3ccc(C(=O)N[C@@H](CCC(=O)O)C(=O)NCc4ccccc4)cc3)cc2)cc(OC)c1 [Example 15G, N^1-benzyl-N^2-({4′-[(3,5-dimethoxybenzyl)oxy]-1,1′-biphenyl-4-yl}carbonyl)-L-α-glutamine] | –
6.70 | O=C(O)CC[C@H](NC(=O)c1ccc(-c2ccc(OCc3ccc4ccccc4c3)cc2)cc1)C(=O)NCc1ccccc1 [Example 15H, N^1-benzyl-N^2-{[4′-(2-naphthylmethoxy)-1,1′-biphenyl-4-yl]carbonyl}-L-α-glutamine] | –
– | COc1cc(C(=O)N[C@@H](CCC(=O)O)C(=O)NCc2ccccc2)cc(OC)c1-c1ccccc1 [Example 17AAA, N^1-benzyl-N^2-[(2,6-dimethoxy-1,1′-biphenyl-4-yl)carbonyl]-L-α-glutamine] | Agg1 IC50 (nM) (Table 1): no inh
6.05 | COc1ccc(-c2ccccc2)cc1NC(=O)[C@H](CCC(=O)O)NC(=O)c1ccc(-c2ccccc2)cc1 [Example 17BBB, N^2-(1,1′-biphenyl-4-ylcarbonyl)-N^1-(4-methoxy-1,1′-biphenyl-3-yl)-L-α-glutamine] | –
5.10 | O=C(O)CC[C@H](NC(=O)c1ccc(-c2ccncc2)cc1)C(=O)NCc1ccccc1 [Example 17VV, N^1-benzyl-N^2-(4-pyridin-4-ylbenzoyl)-L-α-glutamine] | –
– | O=C(O)CC[C@H](NC(=O)c1cccc(-c2ccccc2)c1)C(=O)NCc1ccccc1 [Example 17WW, N^1-benzyl-N^2-(1,1′-biphenyl-3-ylcarbonyl)-L-α-glutamine] | Agg1 IC50 (nM) (Table 1): no inh
– | O=C(O)CC[C@H](NC(=O)c1cccc(-c2cccs2)c1)C(=O)NCc1ccccc1 [Example 17XX, N^1-benzyl-N^2-(3-thien-2-ylbenzoyl)-L-α-glutamine] | Agg1 IC50 (nM) (Table 1): no inh
5.70 | O=C(O)CC[C@H](NC(=O)c1ccc(-c2ccccc2)cc1Cl)C(=O)NCc1ccccc1 [Example 17YY, N^1-benzyl-N^2-[(3-chloro-1,1′-biphenyl-4-yl)carbonyl]-L-α-glutamine] | –
6.70 | O=C(O)CC[C@H](NC(=O)c1ccc(-c2ccccc2)cc1F)C(=O)NCc1ccccc1 [Example 17ZZ, N^1-benzyl-N^2-[(3-fluoro-1,1′-biphenyl-4-yl)carbonyl]-L-α-glutamine] | –
– | Cc1cccc(CNC(=O)[C@H](CCC(=O)O)NC(=O)c2ccc(Br)cc2)c1 [Example 18G, N^2-(4-bromobenzoyl)-N-(3-methylbenzyl)-L-α-glutamine] | pIC50 (Table 2): ~5.08

Structure (SMILES) | pIC50 (Table 1) | other results
C=CCOc1ccc(-c2ccc(C(=O)N[C@@H](CCC(=O)O)C(=O)NCc3ccccc3)cc2)cc1 [Example 15E, N^2-{[4′-(allyloxy)-1,1′-biphenyl-4-yl]carbonyl}-N^1-benzyl-L-α-glutamine] | 5.46 | –
